From publication PMC4505723 (Journal of the American Chemical Society, 2015) come the findings set out here.

This assay concerns L. lactis HP cells. Description: liquid media growth assays with L. lactis HP cells. It counts as cell-based. As to conditions: liquid media growth assay (Figure S4).

For the substance lacticin 481 [wt lacticin 481], the IC50 came out at 100 ± 25 nM. Regarding nukacin ISK-1, inhibition was half-maximal at 400 ± 80 nM (IC50).

As usually defined, the IC50 is the concentration that gives 50% inhibition.
